# Experiments:
# Rattenlebermikrosomen = experiment: Inhibition of microsomal lipid peroxidation (malondialdehyde/thiobarbituric acid); assay type: biochemical, Ratte; conditions: rat liver microsomes, FeSO₄ start, 10 min 37°C; read-out: IC50 Mikrosomale Lipidperoxidation
# Experimental: 4. Hemmung der Mikrosomalen Lipidperoxidation […]
# Alle Schritte werden bei 0°C durchgeführt. Die Leber einer Ratte wird, um alles Hämoglobin zu entfernen, mit 0,9 % NaCl-Lösung gründlich gespült. Die grob zerkleinerte Leber wird dann in 10 mM Tris/HCl pH 7,4; 250 mM Saccharose (10 ml Puffer/g Leber) gepottert. Zunächst wird 5 Minuten bei 600xg zentrifugiert. Der Überstand wird dann 10 min bei 12000xg zentrifugiert und wird mit festem CaCl₂ (117,6 mg/100 ml) auf eine Konzentration von 8 mM eingestellt. Durch Zentrifugieren bei 25000 xg (15 min) wird ein Mikrosomenniederschlag gewonnen. Dieser Niederschlag wird im gleichen Volumen Puffer (10 mM Tris/HCl pH 7,4; 150 mM KCl) rehomogenisiert und erneut 15 min bei 25000 xg zentrifugiert.
# Ein Testansatz besteht aus 20 µl Mikrosomen (100 mg/ml), vgl. oben, gelöst in Puffer (250 mM Tris/HCl pH 6,6, 750 mM KCl), 10 µl 50 mM MgCl₂, 10 µl 200 mM Isocitronensäure, 10 µl 4mM NADP (3,028 mg/ml Wasser), 10 µl 25 mM Niacinamid, 10 µl Isocitratdehydrogenase (1:100 verdünnt) und 20 µl Wasser oder Testsubstanz. Gestartet wird die Reaktion mit 10 µl 0,25 mM FeSO₄. Die Inkubation dauert 10 Minuten und erfolgt bei 37°C. Gestoppt wird mit 500 µl eiskalter 20 %iger Trichloressigsäure. Entstandenes Malondialdehyd wird durch Zugabe von 500 µl 0,67 %iger Thiobarbitursäure und 30 Minuten Inkubation bei 90°C in eine pinkfarbene Verbindung überführt, die bei 532 nm gemessen wird. Die Extinktion im Kontrollansatz ohne Prüfpräparat wird auf 0 % Hemmung gesetzt, während das völlige Verschwinden des Signals 100 % Hemmung bedeutet.
# [1] = tested on: Matrix Metalloproteasen (MMP); experiment: Inhibition of matrix metalloproteases from supernatant of PMA-induced synoviocytes, fluorogenic substrate; assay type: biochemical, Kaninchen
# Text: 3. Inhibierung von Matrix Metalloproteasen (MMP)
# Die erfindungsgemäßen Verbindungen zeigten deutliche inhibitorische Wirkungen auf proteolytische Enzyme, die sogenannten Matrix Metalloproteasen. Dies ist von großer Bedeutung, weil diese dem Fachmann an sich bekannten Enzyme am proteolytischen Abbau der intakten Knorpelmatrix entscheidend beteiligt sind.
# Kaninchen Synoviocyten (HIG-82; ATCC, Rockville, Maryland, USA) werden in Nährmedium HAM'S F12 (Sigma, Deisenhofen, Deutschland, Katalog Nr. N-6760) mit 10 % fötalem Rinder Serum (Sigma, Deisenhofen, Deutschland, Katalog Nr. F-2442), zusammen mit Penicillin 100 U/ml sowie Streptomycin 100 µg/ml, kultiviert. Nach konfluentem Zellwachstum wird die MMP Expression in serumfreiem HAM'S F12 durch Zugabe von 0,3 µmol/l Phorbol-12-Myristat-13-Acetat induziert. Nach 20 h Inkubationszeit bei 37°C wird der Überstand abgenommen.
# Der Überstand wird mit Trypsin (5 µg/ml) aktiviert. Nach 15 Minuten (min) bei 37°C wird die Aktivierung durch Zugabe von 1 mmol/l Phenylmethylsulfonylfluorid (PMSF) beendet und für weitere 10 min nachinkubiert. Das Gesamtvolumen des Ansatzes beträgt 210 µl.
# Messung der MMP Aktivität (Lit.: C.G. Knight et al.; FEBS Lett. 296, 263 (1992)):
# 20 µl des obengenannten Überstandes werden 1:10 verdünnt, und mit 240 µl Puffer (0,1 Tris/HCl pH 7,5; 0,1 M NaCl; 0,01 M CaCl₂; 0,05 % Brij) gemischt. Die Prüfsubstanz wird in der angegebenen Konzentration (s. Tabelle) zugegeben. Nach einer Inkubationszeit von 15 min wird die Reaktion durch Zugabe von 20 µmol/l Fluoreszenz-Substanz ((7-Methoxycoumarin-4-yl)acetyl-pro-Leu-Gly-Leu-[3-(2',4'-dinitrophenyl)-L-2,3-diaminopropionyl]-Ala-Arg-NH₂; Bachem, Heidelberg, Deutschland, Kat. Nr.: M-1895) gestartet. Die Reaktion wird nach 30 min durch Zugabe von 10 mmol/l EDTA beendet. Das Gesamtvolumen des Ansatzes beträgt 320 µl. Als Meßparameter dienen die Fluoreszenzintensitäten bei λex: 328 nm und […]. Um die mögliche Eigenfluoreszens der Prüfsubstanzen zu berücksichtigen, werden die Fluoreszenzintensitäten von Parallel-Messungen ohne Substrat von den Messwerten mit Substrat abgezogen. Alle Operationen erfolgen bei 20°C. Im Kontrollexperiment ohne Hemmstoff wird die Fluoreszenz entsprechen 0 % Hemmung gesetzt, während völlige Auslöschung der Fluoreszenz 100 % Hemmung bedeutet.
# TNF-alpha = experiment: LPS-stimulated interleukin release from human mononuclear cells, ELISA (TNF-alpha); assay type: cell-based; conditions: 10 µmol/l, 20-22 h, read-out: % Hemmung der Interleukin-Freisetzung
# Experimental: (§1) 5. Freisetzung von Interleukinen (insbesondere IL-1β) aus humanen mononuklearen Zellen
# (§2) Die erfindungsgemäßen Verbindungen haben eine starke Hemmwirkung auf die Freisetzung von Interleukinen aus Humanzellen. Dies ist von großer pharmakologischer Bedeutung weil Interleukine die unerwünschte Degradation der Knorpelmatrix auslösen können.
# (§3) 10 ml Humanblut, stabilisiert mit 1 ml 3,8 %iger Natriumcitrat-Lösung, werden mit 10 ml PM16 (Serva, Heidelberg) verdünnt und mit 15 ml Lymphoprep (Dr. Molter GmbH, Heidelberg) unterschichtet. Die Proben werden 40 Minuten bei 400 xg (1600 rpm Minifuge 2, Heraeus, Osterode) zentrifugiert (Raumtemperatur). Die mononuklearen Zellen sind als weißer Ring an der Grenze Lymphoprep/Plasma sichtbar. Dieser Ring wird mit einer Spritze vorsichtig entnommen, mit dem gleichen Volumen PM16 verdünnt und 10 Minuten bei 400 xg zentrifugiert. Der Niederschlag wird mit ∼ 10 ml RPMI 1640 (+ 300 mg/l L-Glutamin, Gibco, Eggenstein) gewaschen. Nach Resuspendieren der Zellen in ∼ 1 ml RPMI 1640 (+ 300 mg/l L-Glutamin, + 25 mM HEPES, + 100 µg/ml Streptomycin, + 100 µg/ml Penicillin) wird die Zelldichte mit einem Coulter Counter JT (Coulter Diagnostics) bestimmt und auf 5 * 10⁶/ml eingestellt. Die Zellen bestehen typischerweise aus 90 % Lymphozyten und 10 % Monozyten.
# (§4) 230 µl mononukleare Zellen werden mit 10 µl Testsubstanz (10 µM in DMSO/Wasser 1/10) und 10 µl Lipopolysaccharide (500 µg gelöst in 1 ml Dimethylsulfoxid (DMSO) und vor Testbeginn 1/10 mit Wasser verdünnt, von Salmonella abortus equi, Sigma, Deisenhofen) 20-22 Stunden bei 37°C; 5 % CO₂ inkubiert. Die Proben werden in einem Eisbad auf 0°C abgekühlt und in einer Sigma-Zentrifuge zentrifugiert (2 Minuten; 2000 rpm). Aliquote des Überstandes werden mit einem kommerziell erhältlichen ELISA (Biermann, Bad Nauheim) bestimmt.
# Chondrozyten = experiment: Stimulation of cartilage matrix (proteoglycan) synthesis in chondrocyte agarose culture, 35S-sulfate incorporation; assay type: cell-based, Rinder; conditions: Chondrocyte, read-out: Stimulationsfaktor der Proteoglykansynthese
# Text: 1. Wirksamkeit in der Synthese-Stimulierung von Knorpel-Matrix, Prüfung in der Chondrozyten-Kultur
# Zellen: Den Fußgelenken frisch geschlachteter Rinder werden der hyaline Knorpel entnommen, mit Pronase (Boehringer Mannheim) und Collagenase (Sigma), die native Matrix enzymatisch abgebaut, und die Chondrozyten in 1 %iger "low melting Agarose" in 24er Multiwell-Schalen in einer Zelldichte von 4 x 10⁶ pro well ausplattiert.
# Medium: Komplettes Medium enthält HAM's F12 (Biochrom KG, Berlin) und 10 % foetales Kälberserum (Boehringer Mannheim), die Testsubstanz wird in Medium gelöst, üblicherweise in einer Konzentration von 10⁻⁵ M zugegeben und bei jedem Mediumwechsel erneut zugefügt.
# Versuchsdurchführung: Die Behandlung erfolgt vom dritten bis zehnten Tag der Primärkultur, am 9. […] Die dissoziative Extraktion der Proteoglykane aus der Agarose-Schicht wird mit 8M Guanidinium-Hydrochlorid und beigefügten Proteinase-Inhibitoren (Sigma) unter Schütteln bei 4° C über 24 h durchgeführt. Der Überstand wird nach Zentrifugation über eine PD 10 ®Sephadex G 25 Säule in freies und inkorporiertes Sulfat getrennt, dessen Aktivität nach Aliquotierung im β-Szintillationscounter gemessen wird.
# Auswertung: Der Parameter für die Matrixproduktion der Chondrozyten ist die Menge synthetisierter Proteoglykane, gemessen als Sulfatinkorporation in cpm. Aus vier Wells pro Gruppe wird der Mittelwert errechnet. Dieser wird durch den Mittelwert der unbehandelten Kontrolle dividiert, und ergibt somit einen Stimulationsfaktor, der bei Stimulation der Matrixsynthese größer 1 ist, bei Hemmung derselben durch Substanzwirkung kleiner 1, und bei unveränderter Matrixsynthese gleich 1 ist.
# Als Standard wird Diacerein eingesetzt, das unter dem Markennamen "Artodar" von der Firma Proter bzw. […] Tabelle II
# IL-1alpha = experiment: LPS-stimulated interleukin release from human mononuclear cells, ELISA (IL-1alpha); assay type: cell-based; conditions: 10 µmol/l, 20-22 h, read-out: % Hemmung der Interleukin-Freisetzung
# Experimental: as §1, §2, §3, §4
structure (smiles),measurement,setting,value
CCOP(=O)(OCC)C(c1cc(C(C)(C)C)c(O)c(C(C)(C)C)c1)N1CCCCC1 (stereo not drawn) [Beispiel 22],IC50,Rattenlebermikrosomen,2450 nM
same,Hemmung der MMP,[1]; 30 µM,12%
same,Hemmung der MMP,[1]; 100 µM,34%
same,inhibition at 10 µM,TNF-alpha,86%
same,fold induction at 10 µM,Chondrozyten,1.2
same,inhibition at 10 µM,IL-1alpha,80%

# Source: patent publication EP0703239A1, “Aminomethylphosphonic and aminomethylphosphinic acids derivatives and their use in the treatment of degenerative articular diseases” (priority 1994, dated 1996)
